ChEMBL document CHEMBL4765487, “From a Designer Drug to the Discovery of Selective Cannabinoid Type 2 Receptor Agonists with Favorable Pharmacokinetic Profiles for the Treatment of Systemic Sclerosis” (J Med Chem, 2021)

Experiments:
Cannabinoid receptor 2 [1] = molecular target: T1, Cannabinoid receptor 2 (Homo sapiens, UniProt P34972); test: Agonist activity at human CB2 receptor expressing CHO cells co-expressing Galpha16 by calcium mobilization assay relative to CP55940; assay type: functional, cell-based
T1 sequence (P34972 whole entry): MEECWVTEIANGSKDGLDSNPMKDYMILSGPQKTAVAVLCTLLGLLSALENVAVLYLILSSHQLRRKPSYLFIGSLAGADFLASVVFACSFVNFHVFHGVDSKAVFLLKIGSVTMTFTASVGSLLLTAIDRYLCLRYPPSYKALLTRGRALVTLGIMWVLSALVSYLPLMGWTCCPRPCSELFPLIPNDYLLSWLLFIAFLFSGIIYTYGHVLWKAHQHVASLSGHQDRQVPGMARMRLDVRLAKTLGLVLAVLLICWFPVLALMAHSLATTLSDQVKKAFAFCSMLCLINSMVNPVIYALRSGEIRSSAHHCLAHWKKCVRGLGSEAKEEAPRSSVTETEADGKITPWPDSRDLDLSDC

Cannabinoid receptor 1 [2] = molecular target: T2, Cannabinoid receptor 1 (Homo sapiens, UniProt P21554); test: Agonist activity at human CB1 receptor expressing CHO cells co-expressing Galpha16 by calcium mobilization assay; assay type: functional, cell-based
T2 sequence (P21554 whole entry): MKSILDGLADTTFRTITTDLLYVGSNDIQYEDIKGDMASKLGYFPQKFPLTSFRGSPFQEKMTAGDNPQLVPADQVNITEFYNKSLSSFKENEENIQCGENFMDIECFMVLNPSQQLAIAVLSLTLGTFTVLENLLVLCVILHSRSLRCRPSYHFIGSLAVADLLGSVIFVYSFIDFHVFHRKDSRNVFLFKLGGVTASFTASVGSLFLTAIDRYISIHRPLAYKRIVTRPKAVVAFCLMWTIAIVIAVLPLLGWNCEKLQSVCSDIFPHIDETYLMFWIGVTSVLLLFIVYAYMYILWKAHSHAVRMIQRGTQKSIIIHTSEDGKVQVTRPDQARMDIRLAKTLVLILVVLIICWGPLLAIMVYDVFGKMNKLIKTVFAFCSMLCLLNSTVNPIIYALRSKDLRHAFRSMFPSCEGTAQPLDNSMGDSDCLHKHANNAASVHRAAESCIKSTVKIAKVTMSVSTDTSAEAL

Cannabinoid receptor 2 [3] = molecular target: T1, Cannabinoid receptor 2; test: Agonist activity at human CB2 receptor expressing CHO cells co-expressing Galpha16 by calcium mobilization assay; assay type: functional, cell-based
Cannabinoid receptor 2 [4] = molecular target: T1, Cannabinoid receptor 2; test: Antagonist activity at human CB2 receptor expressing CHO cells co-expressing Galpha16 assessed as inhibition of CP55940-induced calcium mobilization pre-incubated for 15 mins before CP55940 addition; assay type: functional, cell-based
Cannabinoid receptor 1 [5] = molecular target: T2, Cannabinoid receptor 1; test: Agonist activity at human CB1 receptor expressing CHO cells co-expressing Galpha16 by calcium mobilization assay relative to CP55940; assay type: functional, cell-based
in vitro [6] = conditions: human, liver
in vitro [7] = conditions: human, liver microsomes
Description: Stability in human liver microsomes assessed as parent compound remaining at 1 uM incubated for 60 mins in presence of NADPH by LC-MS/MS analysis

in vitro [8] = conditions: human, liver microsomes; remark: listed apart in the source
in vitro [9] = conditions: human, liver microsomes; remark: listed apart in the source
Description: Half life in human liver microsomes at 1 uM in presence of NADPH by LC-MS/MS analysis

Compound | Emax (Cannabinoid receptor 2 [1]; filed as agonist) [%] | EC50 (Cannabinoid receptor 1 [2]) [µM] | EC50 (Cannabinoid receptor 2 [3]) [µM] | Emax (Cannabinoid receptor 1 [5]; filed as agonist) [%] | further results
Cc1ccc(-n2nc(C(=O)NC(C)(C)CO)cc2C(C)(C)C)cc1 | 40 | 100 | 0.197 |  | 
CCCCCn1nc(C(=O)NC(C)(C)CO)cc1C1CC1 |  | 100 | 100 |  | IC50 (Cannabinoid receptor 2 [4]; cho): Not Active
CCCCCCn1nc(C(=O)NC(C)(C)CO)cc1C(C)(C)C | 100 | 0.047 | 0.0134 | 100 | 
CC(C)(CO)NC(=O)c1cc(C(C)(C)C)n(-c2ccc(F)cc2F)n1 | 80 | 100 | 1.73 |  | 
CC(C)(CO)NC(=O)c1cc(C(C)(C)C)n(-c2ccc(OC(F)(F)F)cc2)n1 |  | 100 | 100 |  | 
COCCn1nc(C(=O)NC(C)(C)CO)cc1C(C)(C)C |  | 100 | 100 |  | 
CC(C)(CO)NC(=O)c1cc(C(C)(C)C)n(CCCCCF)n1 | 70 | 0.043 | 0.0364 | 90 | 
CCCCCn1nc(C(=O)NC23CC4CC(CC(O)(C4)C2)C3)cc1C(C)(C)C |  | 0.004 | 100 | 100 | 
CCCCCn1nc(C(=O)Nc2ccncc2)cc1C(C)(C)C | 60 | 0.221 | 0.118 |  | Emax (Cannabinoid receptor 1 [5]): 30%
CC(C)(CO)NC(=O)c1cc(C(C)(C)C)n(-c2ccc(C(F)(F)F)cc2)n1 |  | 100 | 100 |  | 
CCCCn1nc(C(=O)NC(C)(C)CO)cc1C(C)(C)C | 100 | 0.101 | 0.0101 | 90 | 
CCCCCn1nc(C(=O)NC23CC4CC(CC(C4)C2)C3)cc1C(C)(C)C |  | 0.271 | 0.194 |  | Emax (Cannabinoid receptor 2 [1]; filed as partial agonist): 58%; Emax (Cannabinoid receptor 1 [5]; filed as partial agonist): 69%
CCCCCn1nc(C(C)(C)C)cc1C(=O)NC(C)(C)CO | 80 | 100 | 0.319 |  | 
CCCCCn1nc(C(=O)NC(C)(C)CO)c(Br)c1C(C)(C)C | 100 | 0.027 | 0.002 | 50 | IC50 (Cannabinoid receptor 2 [4]; cho): Not Active
CC(C)(CO)NC(=O)c1cc(C(C)(C)C)n(CCCF)n1 | 100 | 100 | 0.184 |  | 
CCCCCn1nc(C(C)(C)C)cc1C(=O)NC(C)(C)C | 80 | 100 | 0.301 |  | 
CCCCCn1nc(C(=O)NC(C)(C)CO)cc1-c1ccc(F)cc1F |  | 100 | 100 |  | IC50 (Cannabinoid receptor 2 [4]; read-out: IC50): 0.0871 µM; CLint scaled at 1 µM (in vitro [6]): 58.2 mL/min/kg; remaining at 1 h, 1 µM (in vitro [7]): 14.1%; microsomal CLint at 1 µM (in vitro [8]): 64.6 µL/min/mg; half-life at 1 µM (in vitro [9]): 21.4 min
COc1ccc(-n2nc(C(=O)NC(C)(C)CO)cc2C(C)(C)C)cc1 |  | 100 | 100 |  | 
CCCCCn1nc(C(=O)NC(C)(C)CO)cc1C(C)C | 70 | 0.171 | 0.0385 | 90 | IC50 (Cannabinoid receptor 2 [4]; cho): Not Active
CCCCCn1nc(C(=O)NC(C)(C)C)cc1C(C)(C)C | 100 | 0.0072 | 0.012 | 100 | 
CC(C)(CO)NC(=O)c1cc(C(C)(C)C)n(-c2ncccn2)n1 |  | 100 | 100 |  | 
CCCCCn1nc(C(C)(C)C)cc1C(=O)NC12CC3CC(CC(C3)C1)C2 |  | 100 | 100 |  | 
CCCCCn1nc(C(=O)NC(C)(C)CO)cc1C1CCCCC1 |  | 100 | 100 |  | IC50 (Cannabinoid receptor 2 [4]; cho): Not Active
CC(C)(CO)NC(=O)c1cc(C(C)(C)C)n(CCCCF)n1 | 100 | 2.85 | 0.0659 | 100 | 
CC(C)(CO)NC(=O)c1cc(C(C)(C)C)n(-c2cccnc2)n1 |  | 100 | 100 |  | 
CCCCCn1nc(C(C)(C)C)cc1C(=O)Nc1ccc(Cl)cc1 |  | 100 | 100 |  | 
